How the values were obtained:
[1] = molecular target: T1, wt human LRRK2, catalytic site (Homo sapiens, UniProt Q5S007); test: TR-FRET LanthaScreen Tb Kinase Activity Assay, LRRK2 inhibition; format: biochemical; details: 2 nM wt human LRRK2, 400 nM peptide, 38 μM ATP
T1 construct: wt human LRRK2, catalytic site, catalytic site (ThermoFisher/USA); purchased ThermoFisher
Procedure: The compounds disclosed herein were tested for their inhibitory effect on LRRK2 kinase according to the following procedures.
The protocol for basic TR-FRET LanthaScreen Tb Kinase Activity Assay inhibitor studies were as follows. LanthaScreen Kinase Activity Assays (ThermoFisher/USA) to evaluate inhibitors were performed by addition of 100 nL of test compound in corresponding DMSO dilutions/5 μL of kinase/fluorescein-ERM (LRRKtide) peptide mixture, Compound & kinase were pre-incubated for 15 minutes, then 5 μl of ATP into 384 well small volume plates. After incubation for 120 minutes at room temperature, the detection reagents containing Tb-anti-pLRRKtide antibody were added to monitor phosphorylation level of peptide. Then, after 60 min minutes incubation at room temperature plates were read in Envision. Data analysis of emission ratios was according to LanthaScreen Tb Kinase Activity Assay protocol.
Kinase and assay components were adjusted to final concentrations according to the kit protocol. For LRRK2: 2 nM wt human LRRK2, catalytic site, catalytic site (ThermoFisher/USA), 400 nM peptide, 38 μM ATP in 1× Kinase Buffer A. […]
Kinase and assay components were adjusted to final concentrations according to the kit protocol.

[2] = tested on: human hepatocyte; test: Human hepatocyte stability, predicted hepatic clearance (h-Hept CL predict); format: in vitro ADME; details: human hepatocytes, 0.5×10^6 cells/mL, 1 μM, values without asterisk
Procedure: The compounds disclosed herein were tested in vitro on human hepatocyte for in vitro h-Hept CL predict according to the following procedures. • 1. Compound sock solutions were prepared by dissolving test compound and positive control in dimethyl sulfoxide (DMSO) at a concentration of 10 mM. Stock solutions were then diluted to 100 μM solutions by combining 198 μL of 50% acetonitrile/50% water with 2 μL of the 10 mM stock in separate conical tubes. • 2. Cryopreserved hepatocytes were prepared as follows: Incubation medium (William's E Medium supplemented with GlutaMAX) and hepatocyte thawing medium were placed in a 37° C. water bath and allowed to warm for at least 15 minutes prior to use. Cryopreserved hepatocytes were removed from storage, ensuring that vials remained at cryogenic temperatures until thawed. Cells were thawed by placing the vials in a 37° C. water bath and gently shaking the vials for 2 minutes. After thawing was completed, vials were sprayed with 70% ethanol and transferred to a biosafety cabinet. Hepatocytes were transferred into 50 mL conical tube containing thawing medium using wide-bore pipette tips. Tubes were placed into a centrifuge and spun at 100 g for 10 minutes. Then thawing medium was aspirated and hepatocytes were resuspended in enough incubation medium to yield ˜1.5×10^6 cells/mL. Cells were counted using acridine orange and propidium iodide (AO/PI) staining, and the viable cell density was determined. Cells were diluted with incubation medium to a working cell density of 0.5×10^6 viable cells/mL. • 3. To determine hepatocyte stability, 198 μL of hepatocytes were transferred into each well of a 96-well non-coated plate. Plates were placed in an incubator to allow the hepatocytes to warm for 10 minutes. • 4. The reaction was started by transferring 2 μL of the 100 μM test compound or positive control solution into respective wells of the 96-well non-coated plates. Plates were returned to the incubator until 25 μL aliquots of well contents were sampled at time points of 0, 15, 30, 60, 90 and 120 minutes. The aliquots were then mixed with 6 volumes (150 μL) of acetonitrile containing internal standard, IS (100 nM alprazolam, 200 nM caffeine and 100 nM tolbutamide) to terminate the reaction and vortexed for 5 minutes. After centrifuging the samples for 45 minutes at 3,220 g, aliquots of 100 μL of the supernatant were taken and diluted with 100 μL of ultra-pure water. The mixture was used for LC/MS/MS analysis. All incubations were performed in duplicate.
All calculations were carried out using Microsoft Excel. Peak area ratios (PAR) were determined from extracted ion chromatograms. The in vitro half-life (t1/2) of parent compound was determined by regression analysis of the percent parent disappearance vs. time curve as follows:
Conversion of the in vitro t1/2 (in minutes) into the in vitro intrinsic clearance (in vitro CLint, in μL/min/1×10^6 cells) was done using the following equation (mean of duplicate determinations): […]
The scaled-up intrinsic clearance (CLint, mL/min/kg), predicted hepatic clearance (CLH, mL/min/kg) and hepatic extraction ratio (ER) were calculated using the following equations:
CLint=(0.693/t1/2)*(1/(hepatocyte concentration (0.5*10^6 cells/mL)))*scaling factors (Table (A) Appendix Table 1)
CLHept-predict=(QH*Scaled-up CLint*fub)/(QH+Scaled-up CLint*fub)
ER=CLH/QH • Where: • V=incubation volume (0.2 mL) • N=number of hepatocytes per well (0.1*10^6 cells) • QH=hepatic blood flow (mL/min/kg) (Table (A) Appendix Table 1) • fub=fraction of unbound drug in plasma, assumed to be 1

[3] = tested on: Caco-2 cells; test: Caco-2 bidirectional permeability; format: in vitro ADME; details: for Caco-2 ER: Efflux Ratio=Papp(BA)/Papp(AB); for Caco-2 A2B (10^−6 cm/s): apical to basolateral; for Caco-2 A2B (10^−6 cm/s) / Caco-2 B2A (10^−6 cm/s): 2 hours, pH 7.4; for Caco-2 B2A (10^−6 cm/s): basolateral to apical
Procedure: The compounds disclosed herein were tested in vitro on CaCo2 cell penetration according to the following procedures.
Caco-2 cells purchased from ATCC were seeded onto […] (PET) in 96-well Corning Insert plates at 1×10^5 cells/cm^2. The media were refreshed every 4 to 5 days until the 21st to 28th day for confluent cell monolayer formation.
Experiments were run in duplicate using a HBSS transport buffer containing 10 mM HEPES at pH 7.4. The test article TEST COMPOUND was tested bi-directionally at […] concentrations, the control compound digoxin was tested bi-directionally at 10 μM, and nadolol and metoprolol were tested at 2.0 μM in the A to B direction. Final DMSO concentrations were adjusted to less than 1%. The plates were incubated for 2 hours in a CO2 incubator at 37±1° C. with 5% CO2 at saturated humidity without shaking. Following incubation, samples were mixed with acetonitrile containing internal standard and centrifuged at 3200×g for 10 minutes. Then 200 μL of supernatant was taken from all samples. For TEST COMPOUND and digoxin, the supernatant was diluted with 200 μL of ultra-pure water and for nadolol and metoprolol, the supernatant was diluted with 600 μL of ultra-pure water. All samples were analyzed by LC-MS/MS. Concentrations of TEST COMPOUND and control compounds were determined in starting solutions, donor well solutions, and receiver well solutions using peak area ratios (PAR) of analyte to internal standard. After the transport assay, a lucifer yellow rejection assay was run to determine the Caco-2 cell monolayer integrity.
The apparent permeability (Papp), the % recovery and the efflux ratio were calculated as follows:
Papp=(dCr/dt)×Vr/(A×C0) 1.
Efflux Ratio=Papp(BA)/Papp(AB) 3. • Where: • dCr/dt is the slope of the cumulative concentration in the receiver compartment versus time (mM/s). • Vr and Vd is the volume in the receiver and donor compartments (0.075 mL on the apical side, 0.25 mL on the basolateral side), respectively. • A is the surface area of the cell monolayer (0.0804 cm^2). • C0 is the measured donor concentrations (μM) at the beginning of the experiment. • Cd and Cr are the final measured concentrations in the donor and receiver compartments, respectively.

T1 sequence (Q5S007 1879-2138 limits assumed): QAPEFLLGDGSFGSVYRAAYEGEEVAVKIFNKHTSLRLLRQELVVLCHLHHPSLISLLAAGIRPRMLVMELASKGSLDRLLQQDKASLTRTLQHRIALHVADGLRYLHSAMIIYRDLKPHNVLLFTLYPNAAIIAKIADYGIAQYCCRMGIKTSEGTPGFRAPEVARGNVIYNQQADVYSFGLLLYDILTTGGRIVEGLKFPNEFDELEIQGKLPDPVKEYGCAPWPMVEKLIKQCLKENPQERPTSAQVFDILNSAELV

Row | IC50 [1] | Caco-2 ER [3] | Caco-2 B2A (10^−6 cm/s) [3] | SMILES | hHep Cl (mL/min/kg) [2] | Caco-2 A2B (10^−6 cm/s) [3]
1 | < 1 nM | L (L (Likely)”: ER≥2.5) | H (H (High permeability)”: A2B (B2A)>5) | Fc1cccc(F)c1C1=Nc2c(Cl)n[nH]c2-c2cc(N3CC4CCC(C3)O4)ncc2N1 [Example 53, 3-(3-chloro-5-(2,6-difluorophenyl)-1,6-dihydropyrazolo[4,3-d]pyrido[4,3-f][1,3]diazepin-9-yl)-8-oxa-3-azabicyclo[3.2.1]octane] | I (I (Intermediate Cl)”: 6.3≤Hep Cl (mL/min/kg)≤14.7) | M (M (Moderate permeability)”: 1≤A2B (B2A)≤5)
2 | 1 to 100 nM | L (L (Likely)”: ER≥2.5) | H (H (High permeability)”: A2B (B2A)>5) | Cc1n[nH]c2c1N=C(c1c(F)cccc1F)Nc1cnc(N3CCCOCC3)cc1-2 [Example 9, 4-[8-(2,6-difluorophenyl)-5-methyl-3,4,7,9,12-pentazatricyclo[8.4.0.02,6]tetradeca-1(10),2(6),4,7,11,13-hexaen-13-y1]-1,4-oxazepane] | L (L (Low Cl)”: Hep Cl (mL/min/kg)<6.3) | M (M (Moderate permeability)”: 1≤A2B (B2A)≤5)
3 | < 1 nM | L (L (Likely)”: ER≥2.5) | H (H (High permeability)”: A2B (B2A)>5) | Cc1n[nH]c2c1N=C(c1c(F)cccc1F)Nc1cnc(N3CCN(CCF)CC3)cc1-2 [Example 1, 8-(2,6-difluorophenyl)-13-[4-(2-fluoroethyl)piperazin-1-y1]-5-methyl-3,4,7,9,12-pentazatricyclo[8.4.0.02,6]tetradeca-1(10),2(6),4,7,11,13-hexaene] | I (I (Intermediate Cl)”: 6.3≤Hep Cl (mL/min/kg)≤14.7) | M (M (Moderate permeability)”: 1≤A2B (B2A)≤5)
4 | 1 to 100 nM | L (L (Likely)”: ER≥2.5) | H (H (High permeability)”: A2B (B2A)>5) | Cc1n[nH]c2c1N=C(c1c(F)ccc(CO)c1F)Nc1cnc(N3CCOCC3)cc1-2 [Example 50, (2,4-difluoro-3-(3-methyl-9-morpholino-1,6-dihydropyrazolo[4,3-d]pyrido[4,3-f][1,3]diazepin-5-yl)phenyl)methanol] | L (L (Low Cl)”: Hep Cl (mL/min/kg)<6.3) | L (L (Low permeability)”: A2B (B2A)<1)
5 | < 1 nM | L (L (Likely)”: ER≥2.5) | H (H (High permeability)”: A2B (B2A)>5) | N#C[C@@H]1CCCN(c2cc3c(cn2)NC(c2c(F)cccc2F)=Nc2c(Cl)n[nH]c2-3)C1 [Example 52, (R)-1-(3-chloro-5-(2,6-difluorophenyl)-1,6-dihydropyrazolo[4,3-d]pyrido[4,3-f][1,3]diazepin-9-y1)piperidine-3-carbonitrile] | I (I (Intermediate Cl)”: 6.3≤Hep Cl (mL/min/kg)≤14.7) | M (M (Moderate permeability)”: 1≤A2B (B2A)≤5)
6 | < 1 nM | L (L (Likely)”: ER≥2.5) | H (H (High permeability)”: A2B (B2A)>5) | Fc1cccc(Cl)c1C1=Nc2c(Cl)n[nH]c2-c2cc(N3CCOCC3)ncc2N1 [Example 24, (4-[5-chloro-8-(2-chloro-6-fluoro-phenyl)-3,4,7,9,12-pentazatricyclo[8.4.0.02,6]tetradeca-1(10),2(6),4,7,11,13-hexaen-13-yl]morpholine)] | I (I (Intermediate Cl)”: 6.3≤Hep Cl (mL/min/kg)≤14.7) | M (M (Moderate permeability)”: 1≤A2B (B2A)≤5)
7 | < 1 nM | L (L (Likely)”: ER≥2.5) | H (H (High permeability)”: A2B (B2A)>5) | Cc1n[nH]c2c1N=C(c1c(F)cccc1F)Nc1c-2cc(N2CCN(S(C)(=O)=O)CC2)nc1C [Example 44, 5-(2,6-difluorophenyl)-3,7-dimethyl-9-(4-(methylsulfonyl)piperazin-1-yl)-1,6-dihydropyrazolo[4,3-d]pyrido[4,3-f][1,3]diazepine] | L (L (Low Cl)”: Hep Cl (mL/min/kg)<6.3) | L (L (Low permeability)”: A2B (B2A)<1)

Row | SMILES | IC50 [1] | Caco-2 ER [3] | Caco-2 B2A (10^−6 cm/s) [3] | hHep Cl (mL/min/kg) [2] | Caco-2 A2B (10^−6 cm/s) [3]
8 | Cc1n[nH]c2c1N=C(c1c(F)cccc1F)Nc1cnc(N3CCO[C@]4(CCOC4)C3)cc1-2 (single isomer, unassigned) [Example 4] | < 1 nM | L (L (Likely)”: ER≥2.5) | H (H (High permeability)”: A2B (B2A)>5) | L (L (Low Cl)”: Hep Cl (mL/min/kg)<6.3) | M (M (Moderate permeability)”: 1≤A2B (B2A)≤5)
9 | COC[C@@H]1CN(c2cc3c(cn2)NC(c2c(F)cccc2F)=Nc2c(C)n[nH]c2-3)CCO1 [Example 16, (2S)-4-[8-(2,6-difluorophenyl)-5-methyl-3,4,7,9,12-pentazatricyclo[8.4.0.02,6]tetradeca-1(10),2(6),4,7,11,13-hexaen-13-y1]-2-(methoxymethyl)morpholine] | 1 to 100 nM | L (L (Likely)”: ER≥2.5) | H (H (High permeability)”: A2B (B2A)>5) | L (L (Low Cl)”: Hep Cl (mL/min/kg)<6.3) | M (M (Moderate permeability)”: 1≤A2B (B2A)≤5)

— patent US20240228493A1, “LRRK2 INHIBITORS AND USES THEREOF” (NEURON23, ICN., priority 2022, published 2024)
